These results are taken from patent publication US20260216170A1, “TETRAHYDROISOQUINOLINE HETEROBIFUNCTIONAL BCL-XL DEGRADERS” (Treeline Biosciences, Inc., priority 2023, published 2026).

For the assay, the target named is T1, Human BCL-XL protein (N-terminal HiBiT tagged BCL-XL expressed in HT1080 cells) (Homo sapiens, UniProt Q07817).
T1 construct: expressed in transfected cells; host or cells: HT-1080 (ATCC CCL-121), stably transduced with lentivirus pLV-UBC-N-HiBiT-BCL-XL-PGK-puro and selected with puromycin
T1 sequence (Q07817 whole entry): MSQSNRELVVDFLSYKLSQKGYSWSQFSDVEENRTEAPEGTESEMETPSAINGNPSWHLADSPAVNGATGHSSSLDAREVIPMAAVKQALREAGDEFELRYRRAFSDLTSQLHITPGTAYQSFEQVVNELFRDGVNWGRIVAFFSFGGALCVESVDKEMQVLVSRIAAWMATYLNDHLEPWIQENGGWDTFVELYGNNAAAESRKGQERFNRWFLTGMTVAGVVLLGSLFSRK
As to the kind of experiment: HiBiT Based Degradation Assay. The class given is cell-based. The note with it: 24 hours incubation; for DC50: BCL-XL degradation, HT1080 cells expressing N-HiBiT-BCL-XL, normalized with DMSO control, geometric mean for multiple data points, read-out: EC50 (24 h); for Ymin (24 h): bottom of BCL-XL degradation curve (remaining HiBiT-BCL-XL signal vs DMSO control), HT1080 cells. Put shortly:
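BCL-XL degradation was read as Nano-Glo HiBiT lytic luminescence relative to DMSO after a 24 h compound treatment of HT1080 cells carrying stably integrated N-HiBiT-BCL-XL. EC50 values come from four-parameter logistic curves, with the hook-curve minimum fixed as bottom, and are geometric means where tested repeatedly.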
In general terms: HiBiT is a short tag that completes a luciferase, so light tracks the accessible tagged protein.

Bounds are passed on as bounds.

Turning to `Cc1c(OCCC[C@@H]2CCN(CC(=O)Nc3ccc4c(C5CCC(=O)NC5=O)nn(C)c4c3)[C@H](C)C2)cccc1-c1ccc(N2CCc3ccnc(C(=O)Nc4nc5ccccc5s4)c3C2)nc1C(=O)O` (stereo partly drawn) [Compound 216d, 6-(8-(benzo[d]thiazol-2-ylcarbamoyl)-3,4-dihydro-2,7-naphthyridin-2(1H)-yl)-3-(3-(3-((2R,4R)-1-(2-((3-(2,6-dioxopiperidin-3-yl)-1-methyl-1H-indazol-6-yl)amino)-2-oxoethyl)-2-methylpiperidin-4-yl)propoxy)-2-methylphenyl)picolinic acid], the DC50 lay within 0.01 to 0.1 µM and the “Ymin (24 h)” value was “B (30% ≤ Ymin < 50%)”.
The like results for `Cc1cc(O[C@H](C)CCC2CCN(CC(=O)Nc3ccc4c(C5CCC(=O)NC5=O)nn(C)c4c3F)CC2)ccc1-c1ccc(N2CCc3cccc(C(=O)Nc4nc5ccccc5s4)c3C2)nc1C(=O)O` (single isomer, unassigned) [Compound 224b] were, in that order, 0.01 to 0.1 µM and “A (Ymin < 30%)”.
For the molecule `Cn1nc(C2CCC(=O)NC2=O)c2ccc(NC(=O)CN3CCC4(CC3)CC(COc3ccc(-c5ccc(N6CCc7cccc(C(=O)Nc8nc9ccccc9s8)c7C6)nc5C(=O)O)c(C(F)(F)F)c3)C4)cc21` (stereo not shown) [Compound 131, 6-(8-(benzo[d]thiazol-2-ylcarbamoyl)-3,4-dihydroisoquinolin-2(1H)-yl)-3-(4-((7-(2-((3-(2,6-dioxopiperidin-3-yl)-1-methyl-1H-indazol-6-yl)amino)-2-oxoethyl)-7-azaspiro[3.5]nonan-2-yl)methoxy)-2-(trifluoromethyl)phenyl)picolinic acid], the DC50 is less than 0.01 µM and the “Ymin (24 h)” value was “B (30% ≤ Ymin < 50%)”.
With `Cc1c(OCC2CC3(CCN(CC(=O)Nc4ccc5c(C6CCC(=O)NC6=O)nn(C)c5c4F)CC3)C2)cccc1-c1ccc(N2CCc3cccc(C(=O)Nc4nc5ccccc5s4)c3C2)nc1C(=O)O` (stereo not shown) [Compound 120], the DC50 fell in the range of 0.01 to 0.1 µM and the “Ymin (24 h)” value is “B (30% ≤ Ymin < 50%)”.
The like results for `Cc1cc(OC[C@H]2C[C@H]2C2CCN(CC(=O)Nc3ccc4c(C5CCC(=O)NC5=O)nn(C)c4c3)CC2)ccc1-c1ccc(N2CCc3cccc(C(=O)Nc4nc5ccccc5s4)c3C2)nc1C(=O)O` (single isomer, unassigned) [Compound 1003c] were, in that order, less than 0.01 µM and “A (Ymin < 30%)”.
The like results for `Cc1cc(OCCCC2CCN(CCCc3ccc4c(C5CCC(=O)NC5=O)nn(C)c4c3)CC2)ccc1-c1ccc(N2CCc3cccc(C(=O)Nc4nc5ccccc5s4)c3C2)nc1C(=O)O` (stereo not shown) [Compound 151, 6-(8-(benzo[d]thiazol-2-ylcarbamoyl)-3,4-dihydroisoquinolin-2(1H)-yl)-3-(4-(3-(1-(3-(3-(2,6-dioxopiperidin-3-yl)-1-methyl-1H-indazol-6-yl)propyl)piperidin-4-yl)propoxy)-2-methylphenyl)picolinic acid] were, in that order, less than 0.01 µM and “A (Ymin < 30%)”.
For `Cn1nc(C2CCC(=O)NC2=O)c2ccc(NC(=O)CN3CCC(CCCOc4cccc(-c5ccc(N6CCc7cccc(C(=O)Nc8nc9ccccc9s8)c7C6)nc5C(=O)O)c4C(F)(F)F)CC3)nc21` (stereo not shown) [Compound 145], the DC50 was 0.01 to 0.1 µM and the “Ymin (24 h)” value is given as “C (50% ≤ Ymin < 70%)”.
As for `Cn1nc(C2CCC(=O)NC2=O)c2ccc(NC(=O)CN3CCC4(CC3)CC(COc3cccc(-c5ccc(N6CCc7cccc(C(=O)Nc8nc9ccccc9s8)c7C6)nc5C(=O)O)c3C(F)(F)F)C4)nc21` (stereo not shown) [Compound 147], the DC50 was 0.01 to 0.1 µM and the “Ymin (24 h)” value is listed as “B (30% ≤ Ymin < 50%)”.
The like results for `Cc1cc(OC[C@@H]2C[C@H]2CC2CCN(CC(=O)Nc3ccc4c(C5CCC(=O)NC5=O)nn(C)c4c3)CC2)ccc1-c1ccc(N2CCc3cccc(C(=O)Nc4nc5ccccc5s4)c3C2)nc1C(=O)O` (single isomer, unassigned) [Compound 1002c] were, in that order, less than 0.01 µM and “A (Ymin < 30%)”.
Regarding `C[C@H]1C[C@H](CCCOc2ccc(-c3ccc(N4CCc5cccc(C(=O)Nc6nc7ccccc7s6)c5C4)nc3C(=O)O)c(C(F)(F)F)c2)CCN1CC(=O)Nc1ccc2c(C3CCC(=O)NC3=O)nn(C)c2c1` (stereo partly shown) [Compound 209b], the DC50 lay in the range of 0.01 to 0.1 µM and the “Ymin (24 h)” value is recorded as “B (30% ≤ Ymin < 50%)”.
On the same counts, the results for `COc1c(NC(=O)CN2CC[C@H](CCCOc3ccc(-c4ccc(N5CCc6cccc(C(=O)Nc7nc8ccccc8s7)c6C5)nc4C(=O)O)c(C)c3)C[C@@H]2C)ccc2c(C3CCC(=O)NC3=O)nn(C)c12` (stereo partly shown) [Compound 210b] are 0.01 to 0.1 µM and “A (Ymin < 30%)”.
The like results for `Cc1cc2c(C3CCC(=O)NC3=O)nn(C)c2cc1NC(=O)CN1CCC2(CC1)CC(COc1ccc(-c3ccc(N4CCc5cccc(C(=O)Nc6nc7ccccc7s6)c5C4)nc3C(=O)O)c(C)c1)C2` (stereo not shown) [Compound 125] were, in that order, 0.01 to 0.1 µM and “B (30% ≤ Ymin < 50%)”.
On the same counts, the results for `COc1c(NC(=O)CN2CCC3(CC2)CC(Oc2ccc(-c4ccc(N5CCc6cccc(C(=O)Nc7nc8ccccc8s7)c6C5)nc4C(=O)O)c(C)c2)C3)ccc2c(C3CCC(=O)NC3=O)nn(C)c12` (stereo not shown) [Compound 170, 6-(8-(benzo[d]thiazol-2-ylcarbamoyl)-3,4-dihydroisoquinolin-2(1H)-yl)-3-(4-((7-(2-((3-(2,6-dioxopiperidin-3-yl)-7-methoxy-1-methyl-1H-indazol-6-yl)amino)-2-oxoethyl)-7-azaspiro[3.5]nonan-2-yl)oxy)-2-methylphenyl)picolinic acid] are less than 0.01 µM and “A (Ymin < 30%)”.
As to `COc1c(NC(=O)CN2CCC3(CC2)CC(Oc2ccc(-c4ccc(N5CCc6cccc(C(=O)Nc7nc8ccccc8s7)c6C5)nc4C(=O)O)c(C(F)(F)F)c2)C3)ccc2c(C3CCC(=O)NC3=O)nn(C)c12` (stereo not shown) [Compound 172, 6-(8-(benzo[d]thiazol-2-ylcarbamoyl)-3,4-dihydroisoquinolin-2(1H)-yl)-3-(4-((7-(2-((3-(2,6-dioxopiperidin-3-yl)-7-methoxy-1-methyl-1H-indazol-6-yl)amino)-2-oxoethyl)-7-azaspiro[3.5]nonan-2-yl)oxy)-2-(trifluoromethyl)phenyl)picolinic acid], the DC50 lay in the range of 0.01 to 0.1 µM and the “Ymin (24 h)” value is given as “B (30% ≤ Ymin < 50%)”.
Turning to `COc1c(NC(=O)CN2CCC3(CC2)CC(COc2ccc(-c4ccc(N5CCc6cccc(C(=O)Nc7nc8ccccc8s7)c6C5)nc4C(=O)O)c(C)c2)C3)ccc2c(C3CCC(=O)NC3=O)nn(C)c12` (stereo not shown) [Compound 128, 6-(8-(benzo[d]thiazol-2-ylcarbamoyl)-3,4-dihydroisoquinolin-2(1H)-yl)-3-(4-((7-(2-((3-(2,6-dioxopiperidin-3-yl)-7-methoxy-1-methyl-1H-indazol-6-yl)amino)-2-oxoethyl)-7-azaspiro[3.5]nonan-2-yl)methoxy)-2-methylphenyl)picolinic acid], the DC50 was less than 0.01 µM and the “Ymin (24 h)” value is “A (Ymin < 30%)”.
On the same counts, the results for `Cc1c(OCC2CC3(CCN(CC(=O)Nc4ccc5c(C6CCC(=O)NC6=O)nn(C)c5c4)CC3)C2)cccc1-c1ccc(N2CCc3ccnc(C(=O)Nc4nc5ccccc5s4)c3C2)nc1C(=O)O` (stereo not shown) [Compound 134, 6-(8-(benzo[d]thiazol-2-ylcarbamoyl)-3,4-dihydro-2,7-naphthyridin-2(1H)-yl)-3-(3-((7-(2-((3-(2,6-dioxopiperidin-3-yl)-1-methyl-1H-indazol-6-yl)amino)-2-oxoethyl)-7-azaspiro[3.5]nonan-2-yl)methoxy)-2-methylphenyl)picolinic acid] are 0.01 to 0.1 µM and “B (30% ≤ Ymin < 50%)”.
As for `Cc1cc(OC2CC3(CCN(CC(=O)Nc4ccc5c(C6CCC(=O)NC6=O)nn(C)c5c4F)CC3)C2)ccc1-c1ccc(N2CCc3cccc(C(=O)Nc4nc5ccccc5s4)c3C2)nc1C(=O)O` (stereo not shown) [Compound 191], the DC50 is less than 0.01 µM and the “Ymin (24 h)” value is “B (30% ≤ Ymin < 50%)”.
On the same counts, the results for `COc1c(NC(=O)CN2CCC(CC[C@@H](C)Oc3ccc(-c4ccc(N5CCc6cccc(C(=O)Nc7nc8ccccc8s7)c6C5)nc4C(=O)O)c(C)c3)CC2)ccc2c(C3CCC(=O)NC3=O)nn(C)c12` (single isomer, unassigned) [Compound 223b] are 0.01 to 0.1 µM and “A (Ymin < 30%)”.
The like results for `Cn1nc(C2CCC(=O)NC2=O)c2ccc(NC(=O)CN3CCC4(CC3)CC(Oc3cccc(-c5ccc(N6CCc7cccc(C(=O)Nc8nc9ccccc9s8)c7C6)nc5C(=O)O)c3C(F)(F)F)C4)cc21` (stereo not shown) [Compound 169, 6-(8-(benzo[d]thiazol-2-ylcarbamoyl)-3,4-dihydroisoquinolin-2(1H)-yl)-3-(3-((7-(2-((3-(2,6-dioxopiperidin-3-yl)-1-methyl-1H-indazol-6-yl)amino)-2-oxoethyl)-7-azaspiro[3.5]nonan-2-yl)oxy)-2-(trifluoromethyl)phenyl)picolinic acid] were, in that order, less than 0.01 µM and “B (30% ≤ Ymin < 50%)”.
The like results for `Cn1nc(C2CCC(=O)NC2=O)c2ccc(NC(=O)CN3CCC4(CC3)CC(COc3ccc(-c5ccc(N6CCc7cccc(C(=O)Nc8nc9ccccc9s8)c7C6)nc5C(=O)O)c(C(F)(F)F)c3)C4)c(F)c21` (stereo not shown) [Compound 186] were, in that order, 0.01 to 0.1 µM and “B (30% ≤ Ymin < 50%)”.
